Results from patent US8269000B2, “Substituted pyrimidine and triazine compounds” (Gruenenthal GmbH, priority 2008, dated 2012).
Structures can show the parent of a compound that is named as a salt.

Columns and labels:
[1] = molecular target: T1, rat B1R (Rattus norvegicus, UniProt P97583); test: FLIPR Ca2+ functional study on bradykinin receptor 1 (rB1R CHO K1 cells); format: cell-based; conditions: CHO-K1, % inhibition rat B1R at 10 μM, read-out: % inh. (rat B1R) 10 μM
T1 construct: expressed in transfected cells; host or cells: CHO K1 cells
T1 sequence (P97583 1-337): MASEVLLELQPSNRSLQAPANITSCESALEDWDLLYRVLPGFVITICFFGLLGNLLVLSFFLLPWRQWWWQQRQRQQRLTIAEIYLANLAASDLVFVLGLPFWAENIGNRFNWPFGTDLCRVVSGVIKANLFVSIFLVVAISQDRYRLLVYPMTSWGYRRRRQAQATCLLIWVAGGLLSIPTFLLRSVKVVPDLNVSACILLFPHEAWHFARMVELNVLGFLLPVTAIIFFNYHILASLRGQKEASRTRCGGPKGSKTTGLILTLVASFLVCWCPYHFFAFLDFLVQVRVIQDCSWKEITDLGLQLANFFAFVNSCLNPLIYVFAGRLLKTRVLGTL
How it was run: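 CHO K1 cells stably expressing human or rat B1R were loaded with Fluo-4 and read on FLIPR (ex 488/em 540 nm, peak counts). Test compound (10 μM, or a concentration range for IC50) was added first for % activation versus control agonist; after 10-20 min, EC80 Lys-Des-Arg9-bradykinin (human) or Des-Arg9-bradykinin (rat) was added, giving % inhibition of maximum. n=2-3, N≥2.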

[2] = molecular target: T2, human B1R (Homo sapiens, UniProt P46663); test: FLIPR Ca2+ functional study on bradykinin receptor 1 (hB1R CHO K1 cells); format: cell-based; conditions: % inhibition human B1R at 10 μM, read-out: % inh. (hum. B1R) 10 μM
T2 construct: expressed in transfected cells; host or cells: CHO K1 cells
T2 sequence (P46663 1-353): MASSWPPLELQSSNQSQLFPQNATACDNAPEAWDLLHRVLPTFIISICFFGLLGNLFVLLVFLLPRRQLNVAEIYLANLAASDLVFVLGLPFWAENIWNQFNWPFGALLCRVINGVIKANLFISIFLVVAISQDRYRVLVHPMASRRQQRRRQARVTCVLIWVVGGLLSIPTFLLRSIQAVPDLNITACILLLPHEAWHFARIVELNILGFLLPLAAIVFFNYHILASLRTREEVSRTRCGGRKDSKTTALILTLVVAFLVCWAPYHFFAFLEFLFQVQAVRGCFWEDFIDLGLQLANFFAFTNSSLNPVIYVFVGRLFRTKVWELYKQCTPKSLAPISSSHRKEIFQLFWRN
Description: The agonistic or antagonistic activity of substances can be quantified on the bradykinin receptor 1 (B1R) of the species human and rat using ectopically expressing cell lines (CHO K1 cells) and with the aid of a Ca^2+-sensitive dye (Fluo-4) using a fluorescent imaging plate reader (FLIPR). The indication in % activation is based on the Ca^2+ signal after addition of Lys-Des-Arg^9-bradykinin (0.5 nM) or Des-Arg^9-bradykinin (100 nM). Antagonists lead to suppression of the Ca^2+ influx after the addition of the agonist. % Inhibition compared with the maximum achievable inhibition is indicated.
The agonistic or antagonistic activity of substances can be determined on the bradykinin receptor 1 (B1R) of the species human and rat using the following assay. According to this assay, the Ca^2+ influx through the channel is quantified with the aid of a Ca^2+-sensitive dye (Fluo-4 type, Molecular Probes Europe BV, Leiden, Netherlands) using a Fluorescent Imaging Plate Reader (FLIPR, Molecular Devices, Sunnyvale, USA).
Chinese hamster ovary cells (CHO K1 cells) which have been stably transfected with the human B1R gene (hB1R cells) or with the B1R gene of the rat (rB1R cells) are used. For functional studies, the cells are plated out on black 96-well plates having a clear base (BD Biosciences, Heidelberg, Germany or Greiner, Frickenhausen, Germany) in a density of 20,000-35,000 cells/well. The cells are left overnight at 37° C. and with 5% CO2 in culture medium (hB1R cells: Nutrient Mixture Ham's F12, Gibco Invitrogen GmbH, Karlsruhe, Germany or DMEM, Sigma-Aldrich, Taufkirchen, Germany; rB1R cells: D-MEM/F12, Gibco Invitrogen GmbH, Karlsruhe, Germany), with 10 vol.% FBS (fetal bovine serum, Gibco Invitrogen GmbH, Karlsruhe, Germany or PAN Biotech GmbH, Aidenbach, Germany). On the following day, the cells are loaded for 60 minutes at 37° C. with 2.13 μM Fluo-4 (Molecular Probes Europe BV, Leiden, Netherlands) in HBSS buffer (Hank's buffered saline solution, Gibco Invitrogen GmbH, Karlsruhe, Germany) […] (Sigma-Aldrich, Taufkirchen, Germany) and 10 mM HEPES (Sigma-Aldrich, Taufkirchen, Germany). The plates are then washed twice with HBSS buffer, and HBSS buffer additionally containing 0.1% BSA (bovine serum albumin; Sigma-Aldrich, Taufkirchen, Germany), 5.6 mM glucose and 0.05% gelatin (Merck KGaA, Darmstadt, Germany) is added to the plates. After incubation for a further 20 minutes at room temperature, the plates are inserted into the FLIPR for Ca^2+ measurement. Alternatively, washing is carried out with buffer A (15 mM HEPES, 80 mM NaCl, 5 mM KCl, 1.2 mM CaCl2, 0.7 mM MgSO4, 2 g/l glucose, 2.5 mM probenecid) followed by loading with buffer A with added 2.5 μM Fluo-4 and 0.025% Pluronic F127 (Sigma-Aldrich, Taufkirchen, Germany). The cells are then washed twice with buffer A and incubated for 30 minutes at room temperature with buffer A additionally containing 0.05% BSA and 0.05% gelatin and are then inserted into the FLIPR for Ca^2+ measurement. The Ca^2+-dependent fluorescence is measured before and after the addition of substances (λex=488 nm, λem=540 nm). Quantification is carried out by measuring the highest fluorescence intensity (FC, fluorescence counts) over time.
The FLIPR protocol consists of two substance additions. Test substances (10 μM) are first pipetted onto the cells and the Ca^2+ influx is compared with the control (hB1R: Lys-Des-Arg^9-bradykinin>=50 nM; rB1R: Des-Arg^9-bradykinin 10 μM). This gives the activation in %, based on the Ca^2+ signal after addition of Lys-Des-Arg^9-bradykinin (>=50 nM) or Des-Arg^9-bradykinin (10 μM). After 10-20 minutes' incubation, Lys-Des-Arg^9-bradykinin (hB1R) or Des-Arg^9-bradykinin (rB1R) is applied in the concentration of the EC80, and the influx of Ca^2+ is likewise determined. Antagonists lead to suppression of the Ca^2+ influx. The % inhibition compared with the maximum achievable inhibition is calculated. […]

| inhibition at 10 µM [1] [%] | inhibition at 10 µM [2] [%] | SMILES |
| --- | --- | --- |
| 89 | 98 | O=S(=O)(c1ccccc1C(F)(F)F)N(CCOc1nccc(N2CCC3(CCN(c4ccncc4)CC3)CC2)n1)C1CC1 [Example G-010, N-cyclopropyl-N-[2-[[4-[9-(4-pyridyl)-3,9-diazaspiro[5.5]undecan-3-yl]-2-pyrimidinyl]oxy]ethyl]-2-(trifluoromethyl)benzenesulfonamide] |
| 99 | 99 | COc1cc(C)c(S(=O)(=O)N2C[C@H](F)C[C@H]2COc2nccc(N3CCC4(CCN(c5ccncc5)CC4)CC3)n2)c(C)c1 [Example G-011, 3-[2-[[(2S,4R)-4-fluoro-1-(4-methoxy-2,6-dimethylphenyl)sulfonyl-2-pyrrolidinyl]methoxy]-4-pyrimidinyl]-9-(4-pyridyl)-3,9-diazaspiro[5.5]undecane] |
| 97 | 99 | COc1cc(C)c(S(=O)(=O)N(CCOc2nccc(N3CCC(Oc4ccncc4)CC3)n2)C2CC2)c(C)c1 [Example G-012, N-cyclopropyl-4-methoxy-2,6-dimethyl-N-[2-[[4-[4-(4-pyridyloxy)-1-piperidinyl]-2-pyrimidinyl]oxy]ethyl]benzenesulfonamide] |
| 102 | 92 | COc1cc(C)c(S(=O)(=O)N(CCOc2nccc(N3CCc4cc(CN5CCC5)ccc4C3)n2)C2CC2)c(C)c1 [Example G-013, N-[2-[[4-[6-(1-azetidinylmethyl)-3,4-dihydro-1H-isoquinolin-2-yl]-2-pyrimidinyl]oxy]ethyl]-N-cyclopropyl-4-methoxy-2,6-dimethylbenzenesulfonamide] |
| 102 | 100 | COc1cc(C)c(S(=O)(=O)N(CCOc2nccc(N3CCC4(CCN(c5ccncc5)C4)C3)n2)C2CC2)c(C)c1 (stereo not shown) [Example G-014, N-cyclopropyl-4-methoxy-2,6-dimethyl-N-[2-[[4-[8-(4-pyridyl)-3,8-diazaspiro[4.4]nonan-3-yl]-2-pyrimidinyl]oxy]ethyl]benzenesulfonamide] |
| 95 | 99 | COc1cc(C)c(S(=O)(=O)N(CCOc2nccc(N3CCC4(CCC(N5CCC5)CC4)CC3)n2)C2CC2)c(C)c1 [Example G-015, N-[2-[[4-[9-(1-azetidinyl)-3-azaspiro[5.5]undecan-3-yl]-2-pyrimidinyl]oxy]ethyl]-N-cyclopropyl-4-methoxy-2,6-dimethylbenzenesulfonamide hydrochloride] |
| 99 | 96 | COc1cc(C)c(S(=O)(=O)N(CCOc2nccc(N3CCC4(CCC(Oc5ccncc5)CC4)CC3)n2)C2CC2)c(C)c1 [Example G-016, N-cyclopropyl-4-methoxy-2,6-dimethyl-N-[2-[[4-[9-(4-pyridyloxy)-3-azaspiro[5.5]undecan-3-yl]-2-pyrimidinyl]oxy]ethyl]benzenesulfonamide] |
| 103 | 22 | COc1cc(C)c(S(=O)(=O)N(CCOc2nccc(N3CCC4(CCC(N5CC(F)(F)C5)CC4)CC3)n2)C2CC2)c(C)c1 [Example G-017, N-cyclopropyl-N-[2-[[4-[9-(3,3-difluoro-1-azetidinyl)-3-azaspiro[5.5]undecan-3-yl]-2-pyrimidinyl]oxy]ethyl]-4-methoxy-2,6-dimethylbenzenesulfonamide] |
| 93 | 99 | COc1cc(C)c(S(=O)(=O)N2CC(Oc3nccc(N4CCC5(CCN(c6ccncc6)CC5)CC4)n3)C2)c(C)c1 [Example G-018, 3-[2-[[1-(4-methoxy-2,6-dimethylphenyl)sulfonyl-3-azetidinyl]oxy]-4-pyrimidinyl]-9-(4-pyridyl)-3,9-diazaspiro[5.5]undecane] |
| 102 | 100 | COc1cc(C)c(S(=O)(=O)N(CCOc2nccc(N3CCC4(CCN(c5ccncc5)CC4)C3)n2)C2CC2)c(C)c1 [Example G-019, N-cyclopropyl-4-methoxy-2,6-dimethyl-N-[2-[[4-[8-(4-pyridyl)-3,8-diazaspiro[4.5]decan-3-yl]-2-pyrimidinyl]oxy]ethyl]benzenesulfonamide] |
| 101 | 95 | COc1cc(C)c(S(=O)(=O)N(CCOc2nccc(N3CC(N4CCc5cc(CN6CCC6)ccc5C4)C3)n2)C2CC2)c(C)c1 [Example G-020, N-[2-[[4-[3-[6-(1-azetidinylmethyl)-3,4-dihydro-1H-isoquinolin-2-yl]-1-azetidinyl]-2-pyrimidinyl]oxy]ethyl]-N-cyclopropyl-4-methoxy-2,6-dimethylbenzenesulfonamide] |
| 86 | 90 | Cc1ccc(Cl)c(S(=O)(=O)N(CCOc2nccc(N3CCC4(CCN(c5ccncc5)CC4)CC3)n2)C2CC2)c1Cl [Example G-021, 2,6-dichloro-N-cyclopropyl-3-methyl-N-[2-[4-(9-pyridin-4-yl-3,9-diazaspiro[5.5]undecan-3-yl)-pyrimidin-2-yl]oxy-ethyl]-benzenesulfonic acid amide] |
| 103 | 100 | COc1cc(C)c(S(=O)(=O)NC2(COc3nccc(N4CCC5(CCN(c6ccncc6)CC5)CC4)n3)CCC2)c(C)c1 [Example G-022, 4-methoxy-2,6-dimethyl-N-[1-[[4-(9-pyridin-4-yl-3,9-diazaspiro[5.5]undecan-3-yl)-pyrimidin-2-yl]oxy-methyl]-cyclobutyl]-benzenesulfonic acid amide] |
| 107 | 94 | COc1cc(C)c(S(=O)(=O)N(CCOc2nccc(N3CCC4(CC3)CCC(OCCN3CCCC3)(c3cccnc3)CC4)n2)C2CC2)c(C)c1 [Example G-023, N-cyclopropyl-4-methoxy-2,6-dimethyl-N-[2-[4-[9-pyridin-3-yl-9-(2-pyrrolidin-1-yl-ethoxy)-3-azaspiro[5.5]undecan-3-yl]-pyrimidin-2-yl]oxy-ethyl]-benzenesulfonic acid amide] |
